Experimental data: ChEMBL document CHEMBL4007384, “Synthesis and optimization of furano[3,2-d]pyrimidines as selective spleen tyrosine kinase (Syk) inhibitors” (Bioorg Med Chem Lett, 2016)

What was measured:
Activin receptor type-1 = biological target: T1, Activin receptor type-1 (Homo sapiens, UniProt Q04771); experiment: Inhibition of ACVR1 (unknown origin) after 60 mins by TR-FRET assay
T1 sequence (Q04771 whole entry): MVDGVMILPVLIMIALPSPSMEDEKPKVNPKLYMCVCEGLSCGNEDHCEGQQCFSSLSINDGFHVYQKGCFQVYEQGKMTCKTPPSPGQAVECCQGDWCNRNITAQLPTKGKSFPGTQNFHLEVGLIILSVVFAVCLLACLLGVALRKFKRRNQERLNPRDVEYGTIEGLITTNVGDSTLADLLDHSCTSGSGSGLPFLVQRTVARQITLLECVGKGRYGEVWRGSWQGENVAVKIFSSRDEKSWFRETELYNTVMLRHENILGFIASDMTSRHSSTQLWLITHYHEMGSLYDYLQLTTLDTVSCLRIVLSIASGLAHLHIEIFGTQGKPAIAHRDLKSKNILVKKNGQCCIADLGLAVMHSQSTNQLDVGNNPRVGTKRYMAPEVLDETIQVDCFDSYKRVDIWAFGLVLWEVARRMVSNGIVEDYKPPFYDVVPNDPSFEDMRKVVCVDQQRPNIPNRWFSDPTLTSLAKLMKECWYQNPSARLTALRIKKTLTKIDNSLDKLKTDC

[1] = biological target: Cyclin-dependent kinase 8 (Homo sapiens, UniProt P49336); experiment: Inhibition of CDK8 (unknown origin) after 60 mins by TR-FRET assay
Sequence of Cyclin-dependent kinase 8 (P49336 whole entry): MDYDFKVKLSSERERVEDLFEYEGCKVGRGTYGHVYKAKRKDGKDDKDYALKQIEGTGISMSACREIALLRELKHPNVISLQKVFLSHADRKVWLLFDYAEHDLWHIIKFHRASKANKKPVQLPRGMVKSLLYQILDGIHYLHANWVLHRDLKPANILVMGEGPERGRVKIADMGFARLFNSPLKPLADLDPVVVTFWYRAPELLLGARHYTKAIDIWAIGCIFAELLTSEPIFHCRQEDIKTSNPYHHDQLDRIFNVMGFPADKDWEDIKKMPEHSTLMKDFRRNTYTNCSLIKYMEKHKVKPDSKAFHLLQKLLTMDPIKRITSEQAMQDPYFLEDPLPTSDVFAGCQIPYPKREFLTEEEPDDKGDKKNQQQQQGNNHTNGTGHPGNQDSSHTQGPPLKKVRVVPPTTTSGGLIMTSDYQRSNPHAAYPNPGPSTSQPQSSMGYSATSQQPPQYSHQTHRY

[2] = biological target: Dual specificity tyrosine-phosphorylation-regulated kinase 1A (Homo sapiens, UniProt Q13627); experiment: Inhibition of DYRK1A (unknown origin) after 60 mins by TR-FRET assay
[3] = biological target: Vascular endothelial growth factor receptor 1 (Homo sapiens, UniProt P17948); experiment: Inhibition of Flt1(unknown origin) after 60 mins by TR-FRET assay
[4] = biological target: Glycogen synthase kinase-3 alpha (Homo sapiens, UniProt P49840); experiment: Inhibition of GSK3A (unknown origin) after 60 mins by TR-FRET assay
Sequence of Glycogen synthase kinase-3 alpha (P49840 whole entry): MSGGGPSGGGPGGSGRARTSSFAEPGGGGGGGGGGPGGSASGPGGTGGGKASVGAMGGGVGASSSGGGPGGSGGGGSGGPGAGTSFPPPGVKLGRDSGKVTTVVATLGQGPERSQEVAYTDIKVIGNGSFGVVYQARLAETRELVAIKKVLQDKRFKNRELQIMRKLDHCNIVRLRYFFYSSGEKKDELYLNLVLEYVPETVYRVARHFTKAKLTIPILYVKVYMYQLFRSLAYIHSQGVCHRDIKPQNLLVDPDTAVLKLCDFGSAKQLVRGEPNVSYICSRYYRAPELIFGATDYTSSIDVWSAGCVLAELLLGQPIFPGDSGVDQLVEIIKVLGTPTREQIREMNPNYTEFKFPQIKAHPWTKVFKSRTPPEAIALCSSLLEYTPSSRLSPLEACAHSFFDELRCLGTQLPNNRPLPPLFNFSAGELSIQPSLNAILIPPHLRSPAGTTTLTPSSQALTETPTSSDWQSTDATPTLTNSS

[5] = biological target: T2, Inhibitor of nuclear factor kappa-B kinase subunit epsilon (Homo sapiens, UniProt Q14164); experiment: Inhibition of IKKE (unknown origin) after 60 mins by TR-FRET assay
T2 sequence (Q14164 whole entry): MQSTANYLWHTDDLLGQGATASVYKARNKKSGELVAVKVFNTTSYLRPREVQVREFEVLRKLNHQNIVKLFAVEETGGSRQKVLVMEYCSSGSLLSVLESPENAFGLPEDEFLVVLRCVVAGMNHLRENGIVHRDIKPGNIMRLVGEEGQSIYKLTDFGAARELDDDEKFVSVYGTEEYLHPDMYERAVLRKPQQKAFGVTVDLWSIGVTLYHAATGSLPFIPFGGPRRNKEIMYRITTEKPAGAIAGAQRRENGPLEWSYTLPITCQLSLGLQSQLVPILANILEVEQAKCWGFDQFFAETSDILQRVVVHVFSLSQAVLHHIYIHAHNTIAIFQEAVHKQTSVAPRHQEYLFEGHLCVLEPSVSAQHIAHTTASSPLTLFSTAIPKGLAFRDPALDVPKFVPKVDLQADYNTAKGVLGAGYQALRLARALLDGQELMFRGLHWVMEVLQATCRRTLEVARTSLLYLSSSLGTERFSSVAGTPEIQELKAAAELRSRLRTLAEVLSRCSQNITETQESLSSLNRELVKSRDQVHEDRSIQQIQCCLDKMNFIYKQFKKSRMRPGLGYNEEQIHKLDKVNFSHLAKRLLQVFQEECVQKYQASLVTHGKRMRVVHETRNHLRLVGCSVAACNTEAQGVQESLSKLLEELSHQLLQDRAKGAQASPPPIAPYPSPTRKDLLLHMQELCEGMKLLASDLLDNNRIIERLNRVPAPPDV

Insulin receptor = Insulin receptor (Homo sapiens, UniProt P06213); experiment: Inhibition of INSR (unknown origin) after 60 mins by TR-FRET assay
[6] = biological target: Vascular endothelial growth factor receptor 2 (Homo sapiens, UniProt P35968); experiment: Inhibition of KDR (unknown origin) after 60 mins by TR-FRET assay
Sequence of Vascular endothelial growth factor receptor 2 (P35968 whole entry): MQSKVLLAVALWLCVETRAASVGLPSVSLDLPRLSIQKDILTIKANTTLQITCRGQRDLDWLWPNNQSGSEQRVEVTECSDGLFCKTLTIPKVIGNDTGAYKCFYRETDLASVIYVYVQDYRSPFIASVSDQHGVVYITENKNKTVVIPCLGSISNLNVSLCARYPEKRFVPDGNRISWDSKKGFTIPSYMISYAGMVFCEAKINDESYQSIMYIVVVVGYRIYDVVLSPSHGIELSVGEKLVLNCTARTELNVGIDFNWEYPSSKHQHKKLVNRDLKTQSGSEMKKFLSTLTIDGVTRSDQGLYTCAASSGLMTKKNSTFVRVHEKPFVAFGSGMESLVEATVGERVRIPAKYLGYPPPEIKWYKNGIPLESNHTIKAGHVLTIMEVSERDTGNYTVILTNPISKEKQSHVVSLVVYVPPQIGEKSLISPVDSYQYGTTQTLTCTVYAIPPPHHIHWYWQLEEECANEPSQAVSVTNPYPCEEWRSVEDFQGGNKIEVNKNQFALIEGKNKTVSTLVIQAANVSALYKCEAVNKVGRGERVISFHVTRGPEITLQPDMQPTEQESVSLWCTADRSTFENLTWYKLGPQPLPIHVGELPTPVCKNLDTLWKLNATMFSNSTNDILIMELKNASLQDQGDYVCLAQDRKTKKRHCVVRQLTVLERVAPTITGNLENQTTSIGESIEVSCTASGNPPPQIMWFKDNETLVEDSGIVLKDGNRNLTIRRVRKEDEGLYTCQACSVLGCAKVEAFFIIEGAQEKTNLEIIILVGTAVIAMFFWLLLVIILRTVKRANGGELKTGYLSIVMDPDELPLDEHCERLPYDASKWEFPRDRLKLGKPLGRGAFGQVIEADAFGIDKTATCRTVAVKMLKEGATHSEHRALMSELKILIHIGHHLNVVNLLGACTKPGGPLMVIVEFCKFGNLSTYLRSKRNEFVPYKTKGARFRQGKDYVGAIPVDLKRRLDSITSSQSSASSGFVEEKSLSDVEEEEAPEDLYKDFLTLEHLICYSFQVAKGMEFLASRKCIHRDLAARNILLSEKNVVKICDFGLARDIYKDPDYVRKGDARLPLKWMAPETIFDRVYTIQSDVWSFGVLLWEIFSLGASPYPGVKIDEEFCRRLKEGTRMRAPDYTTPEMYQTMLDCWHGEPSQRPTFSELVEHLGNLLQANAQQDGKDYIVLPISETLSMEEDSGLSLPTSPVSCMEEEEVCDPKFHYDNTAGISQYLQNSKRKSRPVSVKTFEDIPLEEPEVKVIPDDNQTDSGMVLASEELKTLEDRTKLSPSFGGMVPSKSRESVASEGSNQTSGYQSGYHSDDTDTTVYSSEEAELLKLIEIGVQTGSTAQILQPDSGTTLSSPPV

[7] = biological target: Dual specificity mitogen-activated protein kinase kinase 2 (Homo sapiens, UniProt P36507); experiment: Inhibition of MEK2 (unknown origin) after 60 mins by TR-FRET assay
Sequence of Dual specificity mitogen-activated protein kinase kinase 2 (P36507 whole entry, the tested form may be a part): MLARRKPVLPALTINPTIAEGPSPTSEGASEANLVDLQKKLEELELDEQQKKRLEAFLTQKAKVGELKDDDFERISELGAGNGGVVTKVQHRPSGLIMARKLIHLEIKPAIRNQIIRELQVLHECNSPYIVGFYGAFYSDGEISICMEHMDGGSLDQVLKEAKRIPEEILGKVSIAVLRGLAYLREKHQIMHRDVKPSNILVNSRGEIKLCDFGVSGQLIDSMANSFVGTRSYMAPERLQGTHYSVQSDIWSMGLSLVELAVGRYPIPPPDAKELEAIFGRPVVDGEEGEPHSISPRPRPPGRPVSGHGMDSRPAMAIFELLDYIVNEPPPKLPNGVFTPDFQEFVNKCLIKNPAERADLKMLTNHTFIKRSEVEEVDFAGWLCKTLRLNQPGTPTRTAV

[8] = biological target: Serine/threonine-protein kinase PAK 4 (Homo sapiens, UniProt O96013); experiment: Inhibition of PAK4 kinase domain (unknown origin) after 60 mins by TR-FRET assay
Sequence of Serine/threonine-protein kinase PAK 4 (O96013 whole entry, the tested form may be a part): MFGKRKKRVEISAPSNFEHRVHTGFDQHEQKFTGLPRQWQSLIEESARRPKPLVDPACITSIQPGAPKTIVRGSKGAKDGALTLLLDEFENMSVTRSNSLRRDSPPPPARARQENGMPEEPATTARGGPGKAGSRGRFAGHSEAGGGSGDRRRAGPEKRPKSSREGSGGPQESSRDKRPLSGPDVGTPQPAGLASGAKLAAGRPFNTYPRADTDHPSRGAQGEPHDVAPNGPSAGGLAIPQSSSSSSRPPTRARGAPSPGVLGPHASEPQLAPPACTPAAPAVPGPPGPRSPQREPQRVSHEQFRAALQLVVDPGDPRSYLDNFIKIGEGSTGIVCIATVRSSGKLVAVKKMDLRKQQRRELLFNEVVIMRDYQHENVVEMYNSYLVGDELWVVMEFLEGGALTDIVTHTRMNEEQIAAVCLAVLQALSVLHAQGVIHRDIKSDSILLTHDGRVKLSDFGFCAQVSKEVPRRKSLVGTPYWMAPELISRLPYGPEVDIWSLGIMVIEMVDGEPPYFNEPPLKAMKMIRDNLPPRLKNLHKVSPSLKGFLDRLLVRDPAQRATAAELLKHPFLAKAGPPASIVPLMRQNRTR

[9] = biological target: Serine/threonine-protein kinase pim-1 (Homo sapiens, UniProt P11309); experiment: Inhibition of PIM1 (unknown origin) after 60 mins by TR-FRET assay
Sequence of Serine/threonine-protein kinase pim-1 (P11309 whole entry): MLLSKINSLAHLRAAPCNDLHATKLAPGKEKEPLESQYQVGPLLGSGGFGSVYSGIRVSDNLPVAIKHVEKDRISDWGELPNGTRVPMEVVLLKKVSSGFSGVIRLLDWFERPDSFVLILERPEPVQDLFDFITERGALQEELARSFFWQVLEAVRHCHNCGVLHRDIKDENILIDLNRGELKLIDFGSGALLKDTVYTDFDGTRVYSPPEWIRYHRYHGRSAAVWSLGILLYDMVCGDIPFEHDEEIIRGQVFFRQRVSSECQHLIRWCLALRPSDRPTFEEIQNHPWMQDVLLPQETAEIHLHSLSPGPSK

[10] = biological target: T3, Serine/threonine-protein kinase D3 (Homo sapiens, UniProt O94806); experiment: Inhibition of Prkcn (unknown origin) after 60 mins by TR-FRET assay
T3 sequence (O94806 whole entry): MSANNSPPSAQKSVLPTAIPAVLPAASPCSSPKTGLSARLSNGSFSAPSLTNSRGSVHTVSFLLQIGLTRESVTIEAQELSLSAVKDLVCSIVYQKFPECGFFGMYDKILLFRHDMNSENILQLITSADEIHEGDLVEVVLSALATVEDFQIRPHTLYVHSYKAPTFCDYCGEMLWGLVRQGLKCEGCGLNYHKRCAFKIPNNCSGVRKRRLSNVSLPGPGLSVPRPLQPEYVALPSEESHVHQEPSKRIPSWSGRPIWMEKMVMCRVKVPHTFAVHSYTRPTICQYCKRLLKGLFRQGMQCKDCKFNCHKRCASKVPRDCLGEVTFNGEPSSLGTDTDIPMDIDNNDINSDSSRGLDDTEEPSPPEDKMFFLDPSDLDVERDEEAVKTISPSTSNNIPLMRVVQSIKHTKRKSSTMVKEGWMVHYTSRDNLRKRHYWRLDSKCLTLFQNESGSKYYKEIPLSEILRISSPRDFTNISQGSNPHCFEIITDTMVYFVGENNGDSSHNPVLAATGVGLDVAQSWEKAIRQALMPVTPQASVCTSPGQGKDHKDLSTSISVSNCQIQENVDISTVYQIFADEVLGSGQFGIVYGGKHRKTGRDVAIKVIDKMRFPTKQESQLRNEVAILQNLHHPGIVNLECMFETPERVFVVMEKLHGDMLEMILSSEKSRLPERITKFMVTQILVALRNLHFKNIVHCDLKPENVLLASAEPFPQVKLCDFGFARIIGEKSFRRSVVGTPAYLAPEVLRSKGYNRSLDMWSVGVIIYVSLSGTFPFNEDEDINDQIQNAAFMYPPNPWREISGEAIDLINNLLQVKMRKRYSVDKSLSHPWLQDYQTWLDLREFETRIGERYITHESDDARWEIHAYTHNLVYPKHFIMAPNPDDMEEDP

[11] = biological target: Rho-associated protein kinase 1 (Homo sapiens, UniProt Q13464); experiment: Inhibition of ROCK1(unknown origin) after 60 mins by TR-FRET assay
[12] = biological target: NT-3 growth factor receptor (Homo sapiens, UniProt Q16288); experiment: Inhibition of TrkC (unknown origin) after 60 mins by TR-FRET assay
Sequence of NT-3 growth factor receptor (Q16288 whole entry): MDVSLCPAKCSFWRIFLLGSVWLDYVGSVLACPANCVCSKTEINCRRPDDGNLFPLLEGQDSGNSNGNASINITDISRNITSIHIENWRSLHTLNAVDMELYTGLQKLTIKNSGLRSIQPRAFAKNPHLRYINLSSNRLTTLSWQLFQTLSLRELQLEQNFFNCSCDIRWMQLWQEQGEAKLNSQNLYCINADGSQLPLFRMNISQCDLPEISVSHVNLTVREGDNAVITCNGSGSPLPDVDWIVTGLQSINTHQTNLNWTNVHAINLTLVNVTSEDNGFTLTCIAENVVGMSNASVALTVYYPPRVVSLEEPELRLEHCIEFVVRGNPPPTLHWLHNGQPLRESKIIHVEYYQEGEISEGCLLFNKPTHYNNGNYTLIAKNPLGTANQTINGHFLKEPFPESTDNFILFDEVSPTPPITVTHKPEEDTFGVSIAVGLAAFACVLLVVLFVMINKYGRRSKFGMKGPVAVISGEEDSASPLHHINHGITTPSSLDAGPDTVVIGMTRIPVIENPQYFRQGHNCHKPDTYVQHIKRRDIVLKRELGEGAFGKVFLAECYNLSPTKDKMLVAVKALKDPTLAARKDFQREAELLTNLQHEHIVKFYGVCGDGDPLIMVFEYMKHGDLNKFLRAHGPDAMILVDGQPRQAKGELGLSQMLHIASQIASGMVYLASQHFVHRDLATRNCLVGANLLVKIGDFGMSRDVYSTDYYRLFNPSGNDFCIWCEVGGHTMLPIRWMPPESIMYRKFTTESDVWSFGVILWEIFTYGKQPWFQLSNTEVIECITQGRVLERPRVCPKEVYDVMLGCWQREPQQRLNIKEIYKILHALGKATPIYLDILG

[13] = biological target: Tyrosine-protein kinase SYK (Homo sapiens, UniProt P43405)
Description: Inhibition of Syk (unknown origin) after 60 mins by TR-FRET assay

What does the source list for `FC(F)(F)CNc1nc(Nc2ccc(N3CCOCC3)c(Cl)c2)nc2ccoc12`?
IC50 (Activin receptor type-1): > 10 µM; IC50 [1]: > 10 µM; IC50 [2]: > 10 µM; IC50 [3]: > 10 µM; IC50 [4]: > 10 µM; IC50 [5]: > 10 µM; IC50 (Insulin receptor): 3.48 µM; IC50 [6]: > 10 µM; IC50 [7]: > 10 µM; IC50 [8]: > 10 µM; IC50 [9]: > 10 µM; IC50 [10]: > 10 µM; IC50 [11]: > 10 µM; IC50 [12]: > 10 µM; IC50 [13]: 0.069 µM

Which IC50 (Activin receptor type-1) does the source give for `FC(F)(F)CNc1nc(Nc2ccc3cn[nH]c3c2)nc2ccoc12` here?
Its IC50 is > 10 µM.

What about the IC50 [1] of the same compound?
The IC50 was 2.11 µM.

What about the IC50 [2] of the same compound?
Its IC50 is 4.86 µM.

What about the IC50 [3] of the same compound?
The IC50 was > 10 µM.

What about the IC50 [4] of the same compound?
Its IC50 is 9.36 µM.

What about the IC50 [5] of the same compound?
Its IC50 is > 10 µM.

What about the IC50 [6] of the same compound?
Its IC50 is > 10 µM.

And the IC50 [7]?
The IC50 was > 10 µM.

What about the IC50 [8] of the same compound?
Its IC50 is 6.44 µM.

What about the IC50 [9] of the same compound?
The IC50 was 1.36 µM.

And the IC50 [10]?
Its IC50 is > 10 µM.

What about the IC50 [11] of the same compound?
The IC50 was 8.61 µM.

And the IC50 [12]?
Its IC50 is > 10 µM.

And the IC50 [13]?
Its IC50 is 0.097 µM.

For `Cc1n[nH]c2cc(Nc3nc(NC4CC4)c4occc4n3)ccc12`, which IC50 (Activin receptor type-1) is on record?
Its IC50 is > 10 µM.

What about the IC50 [1] of the same compound?
Its IC50 is > 10 µM.

What about the IC50 [2] of the same compound?
Its IC50 is > 10 µM.

And the IC50 [3]?
The IC50 was > 10 µM.

And the IC50 [4]?
Its IC50 is > 10 µM.

And the IC50 [5]?
The IC50 was > 10 µM.

And the IC50 (Insulin receptor)?
The IC50 was > 10 µM.

And the IC50 [7]?
Its IC50 is > 10 µM.

And the IC50 [8]?
The IC50 was 6.79 µM.

And the IC50 [9]?
Its IC50 is > 10 µM.

What about the IC50 [10] of the same compound?
The IC50 was > 10 µM.

What about the IC50 [11] of the same compound?
The IC50 was > 10 µM.

What about the IC50 [12] of the same compound?
The IC50 was > 10 µM.

How did the IC50 (Activin receptor type-1) turn out when `CC1(C)OCC(=O)Nc2cc(Nc3nc(NCC(F)(F)F)c4occc4n3)ccc21` was run?
Its IC50 is > 10 µM.

And the IC50 [1]?
Its IC50 is > 10 µM.

What about the IC50 [2] of the same compound?
Its IC50 is > 10 µM.

What about the IC50 [3] of the same compound?
Its IC50 is 9.13 µM.

What about the IC50 [4] of the same compound?
Its IC50 is > 10 µM.

And the IC50 [5]?
Its IC50 is 3.43 µM.

What about the IC50 (Insulin receptor) of the same compound?
The IC50 was 2.13 µM.

What about the IC50 [6] of the same compound?
Its IC50 is 3.35 µM.

What about the IC50 [7] of the same compound?
Its IC50 is > 10 µM.

What about the IC50 [8] of the same compound?
The IC50 was > 10 µM.

What about the IC50 [9] of the same compound?
The IC50 was > 10 µM.

What about the IC50 [10] of the same compound?
The IC50 was > 10 µM.

What about the IC50 [11] of the same compound?
Its IC50 is 5.78 µM.

And the IC50 [12]?
Its IC50 is 7.7 µM.

And the IC50 [13]?
Its IC50 is 0.009 µM.
